According to patent publication US8754071B2 (priority 2011, dated 2014):
Read-outs that look alike come from different tables or passages of the source.

Target: T1, c-kit (Homo sapiens, UniProt P10721)
T1 construct: human Mo7e cells which endogenously express c-kit; endogenous in cells; host or cells: human Mo7e cells (promegakaryocytic leukemia line), stimulated with human recombinant SCF
Test: Mo7e cell proliferation assay (SCF dependent proliferation)
Type: cell-based
Details: human Mo7e cells stimulated with SCF, 48 hours, CellTiter Glo, 1% FBS, read-out: c-kit (Mo7e)
Method: Mo7e Cell Proliferation Assay The compounds of Table 1 and Table 2 were tested for inhibition of SCF dependent proliferation using human Mo7e cells which endogenously express c-kit in a 384 well format. […] After 48 hours of incubation at 37° C., cell viability was measured by adding 25 uL of CellTiter Glo (Promega) to the cells and the luminescence was measured by a […] camera (Molecular Devices). […] The IC50 value is given as that concentration of the test compound in question that provoke a response halfway between the baseline and maximum responses.

T1 sequence (P10721 26-976): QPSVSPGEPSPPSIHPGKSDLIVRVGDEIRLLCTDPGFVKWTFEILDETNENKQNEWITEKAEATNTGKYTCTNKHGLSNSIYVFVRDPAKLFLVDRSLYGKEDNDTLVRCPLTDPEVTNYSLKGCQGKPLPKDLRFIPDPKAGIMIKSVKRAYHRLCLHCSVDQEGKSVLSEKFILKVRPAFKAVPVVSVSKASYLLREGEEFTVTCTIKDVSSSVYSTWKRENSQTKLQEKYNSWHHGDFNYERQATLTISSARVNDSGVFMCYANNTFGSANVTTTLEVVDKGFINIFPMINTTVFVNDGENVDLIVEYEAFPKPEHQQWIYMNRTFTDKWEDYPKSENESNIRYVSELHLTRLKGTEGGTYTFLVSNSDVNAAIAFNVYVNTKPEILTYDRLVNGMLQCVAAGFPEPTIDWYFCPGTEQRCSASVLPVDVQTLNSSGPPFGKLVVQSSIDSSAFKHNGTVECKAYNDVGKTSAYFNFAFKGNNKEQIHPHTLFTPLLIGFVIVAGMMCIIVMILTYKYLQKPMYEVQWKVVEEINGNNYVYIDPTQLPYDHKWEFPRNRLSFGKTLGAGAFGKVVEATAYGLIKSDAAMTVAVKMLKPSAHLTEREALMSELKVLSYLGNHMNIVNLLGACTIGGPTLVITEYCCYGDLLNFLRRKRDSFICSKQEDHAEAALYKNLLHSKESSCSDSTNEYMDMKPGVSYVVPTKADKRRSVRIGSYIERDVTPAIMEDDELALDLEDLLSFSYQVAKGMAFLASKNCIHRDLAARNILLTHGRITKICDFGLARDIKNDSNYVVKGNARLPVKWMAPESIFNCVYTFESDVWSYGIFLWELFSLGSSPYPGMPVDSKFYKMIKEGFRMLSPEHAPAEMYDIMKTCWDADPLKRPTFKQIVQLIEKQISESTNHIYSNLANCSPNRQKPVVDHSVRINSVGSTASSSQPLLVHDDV

IC50 (Table 2)	IC50 (Table 1)	Compound
426 nM	–	Cc1ccc(-c2noc(CCC(=O)N3CCOCC3)n2)cc1NC(=O)c1cnc2ccccn12 [F124]
155 nM	–	Cc1ccc(-c2noc(C3CN(S(=O)(=O)c4cn[nH]c4)C3)n2)cc1NC(=O)c1cnc2ccccn12 [F218]
170 nM	–	COC(=O)N1CCC[C@@H]1c1nc(-c2ccc(C)c(NC(=O)c3cnc4ccccn34)c2)no1 [F212]
132 nM	–	Cc1ccc(-c2noc(N3CCC3)n2)cc1NC(=O)c1cnc2ccccn12 [F248]
464 nM	–	CC(=O)N1CC(c2nc(-c3ccc(C)c(NC(=O)c4cnc5ccccn45)c3)no2)C1 [F115]
–	43 nM	[2H]c1ccc2ncc(C(=O)Nc3cc(-c4noc(C5CN(C(=O)OC)C5)n4)ccc3C)n2c1 [F98]
–	89 nM	Cc1ccc(-c2noc(C3(C)CN(S(C)(=O)=O)C3)n2)cc1NC(=O)c1cnc2ccccn12 [F58]
1010 nM	–	CC(=O)N1CCC[C@@H]1c1nc(-c2ccc(C)c(NC(=O)c3cnc4ccccn34)c2)no1 [F269]
–	62 nM	Cc1ccn2c(C(=O)Nc3cc(-c4noc(N5CC(C)(O)C5)n4)ccc3C)cnc2c1 [F88]
1670 nM	–	Cc1ccc(-c2noc(C3CCCNC3)n2)cc1NC(=O)c1cnc2ccccn12 (stereo not shown) [F285]
–	55 nM	Cc1ccc(-c2noc(N3CC(F)(F)C3)n2)cc1NC(=O)c1cnc2ccccn12 [F78]
153 nM	–	Cc1ccc(-c2noc(C3CN(S(=O)(=O)c4cccnc4)C3)n2)cc1NC(=O)c1cnc2ccccn12 [F157]
963 nM	–	Cc1ccc(-c2noc(CNC(=O)CN3CCOCC3)n2)cc1NC(=O)c1cnc2ccccn12 [F144]
177 nM	–	Cc1ccc(-c2noc(C3CN(C(=O)OCC(F)F)C3)n2)cc1NC(=O)c1cnc2ccccn12 [F259]
350 nM	–	Cc1ccc(-c2noc(C3CCO3)n2)cc1NC(=O)c1cnc2ccccn12 (stereo not shown) [F263]
270 nM	–	COC1CN(C(=O)OCc2nc(-c3ccc(C)c(NC(=O)c4cnc5ccccn45)c3)no2)C1 [F138]
489 nM	–	Cc1cc(F)c(-c2noc(C3CN(S(C)(=O)=O)C3)n2)cc1NC(=O)c1cnc2ccccn12 [F232]
–	61 nM	Cc1ccc(-c2nc(N3CCOCC3)no2)cc1NC(=O)c1cnc2ccccn12 [F75, N-(2-methyl-5-(3-morpholino-1,2,4-oxadiazol-5-yl)phenyl)imidazo[1,2-a]pyridine-3-carboxamide]
–	19 nM	COC(=O)N1CC(c2nc(-c3ccc(C)c(NC(=O)c4cnc5ccc(COCC(F)F)cn45)c3)no2)C1 [F95, methyl 3-(3-(3-(6-((2,2-difluoroethoxy)methyl)imidazo[1,2-a]pyridine-3-carboxamido)-4-methylphenyl)-1,2,4-oxadiazol-5-yl)azetidine-1-carboxylate]
527 nM	–	Cc1ccc(-c2noc([C@@H]3CNCCO3)n2)cc1NC(=O)c1cnc2ccccn12 [F123]
–	21 nM	Cc1ccn2c(C(=O)Nc3cc(-c4noc(N5CCC(F)(F)C5)n4)ccc3C)cnc2c1 [F92]
150 nM	–	Cc1ccc(-c2noc(CNC(=O)C3(C)COC3)n2)cc1NC(=O)c1cnc2ccccn12 [F148]
232 nM	–	Cc1ccc(-c2noc(CNC(=O)[C@@H]3CCCO3)n2)cc1NC(=O)c1cnc2ccccn12 [F147]
–	26 nM	Cc1ccc2ncc(C(=O)Nc3cc(-c4noc(N5CC(O)(C(F)(F)F)C5)n4)ccc3C)n2c1 [F6]
3520 nM	–	Cc1ccc(-c2noc(C3CN(S(=O)(=O)c4c[nH]cn4)C3)n2)cc1NC(=O)c1cnc2ccccn12 [F299]

IC50 (Table 2)	IC50 (Table 1)	Compound
–	43 nM	Cc1ccc(-c2noc([C@H](C)N3CCC(F)(F)C3)n2)cc1NC(=O)c1cnc2ccccn12 [F51]
–	51 nM	COC(=O)N1CC(c2nc(-c3ccc(C)c(NC(=O)c4cnc5cc(CCC(C)(C)O)ccn45)c3)no2)C1 [F74, methyl 3-(3-(3-(7-(3-hydroxy-3-methylbutyl)imidazo[1,2-a]pyridine-3-carboxamido)-4-methylphenyl)-1,2,4-oxadiazol-5-yl)azetidine-1-carboxylate]
358 nM	–	CC(=O)N1CCOC[C@@H]1c1nc(-c2ccc(C)c(NC(=O)c3cnc4ccccn34)c2)no1 [F168]
–	623 nM	Cc1ccc(-c2noc(C3CN(C(=O)OC(C)(C)C)C3)n2)cc1NC(=O)c1cnc2ccccn12 [F13, tert-butyl 3-(3-(3-(imidazo[1,2-a]pyridine-3-carboxamido)-4-methylphenyl)-1,2,4-oxadiazol-5-yl)azetidine-1-carboxylate]
–	66 nM	Cc1ccc(-c2noc(C3CN(S(C)(=O)=O)CCO3)n2)cc1NC(=O)c1cnc2ccccn12 (stereo not shown) [F35]
–	11 nM	Cc1ccc(Nc2noc([C@H]3CCCO3)n2)cc1NC(=O)c1cnc2ccccn12 [F71]
–	55 nM	Cc1ccc(-c2noc([C@@H]3CC(F)(F)CN3S(C)(=O)=O)n2)cc1NC(=O)c1cnc2ccccn12 [F32]
341 nM	–	O=C(Nc1cc(-c2noc(CN3CC(F)(F)C3)n2)ccc1F)c1cnc2ccccn12 [F228]
140 nM	–	Cc1ccc(-c2noc(C3(C)COC3)n2)cc1NC(=O)c1cnc2ccccn12 [F128]
–	33 nM	Cc1ccn2c(C(=O)Nc3cc(-c4noc(N5CCC(F)CC5)n4)ccc3C)cnc2c1 [F90]
269 nM	–	COC(=O)N1CCOC[C@H]1c1nc(-c2ccc(C)c(NC(=O)c3cnc4ccccn34)c2)no1 [F164]
–	92 nM	Cc1ccc(-c2nc(N3C[C@@H]4C[C@H]3CO4)no2)cc1NC(=O)c1cnc2ccccn12 [F94]
–	33 nM	COC(=O)N1CC(c2nc(-c3ccc(C)c(NC(=O)c4cnc5ccc(CCCC#N)cn45)c3)no2)C1 [F59, methyl 3-(3-(3-(6-(3-cyanopropyl)imidazo[1,2-a]pyridine-3-carboxamido)-4-methylphenyl)-1,2,4-oxadiazol-5-yl)azetidine-1-carboxylate]
854 nM	–	Cn1cc(S(=O)(=O)N2CC(c3nc(-c4ccc(F)c(NC(=O)c5cnc6ccccn56)c4)no3)C2)cn1 [F224]
–	40 nM	Cc1ccc(-c2noc(CC3CCCOC3)n2)cc1NC(=O)c1cnc2ccccn12 (stereo not shown) [F49]
–	88 nM	Cc1ccc(-c2noc(C3CN(S(N)(=O)=O)C3)n2)cc1NC(=O)c1cnc2ccccn12 [F23, N-(2-methyl-5-(5-(1-sulfamoylazetidin-3-yl)-1,2,4-oxadiazol-3-yl)phenyl)imidazo[1,2-a]pyridine-3-carboxamide]
–	64 nM	Cc1ccn2c(C(=O)Nc3cc(-c4noc(N5CCOCC5)n4)ccc3C)cnc2c1 [F91]
700 nM	–	COCC(=O)NC1(c2nc(-c3ccc(C)c(NC(=O)c4cnc5ccccn45)c3)no2)COC1 [F141]
259 nM	–	COCC1CN(Cc2nc(-c3ccc(C)c(NC(=O)c4cnc5ccccn45)c3)no2)C1 [F182]
–	27 nM	Cc1ccc(-c2noc(CC3CCOCC3)n2)cc1NC(=O)c1cnc2ccccn12 [F17]
–	33 nM	COC(=O)N1CC(c2nc(-c3ccc(C)c(NC(=O)c4cnc5ccc(CCC(C)=O)cn45)c3)no2)C1 [F65, methyl 3-(3-(4-methyl-3-(6-(3-oxobutyl)imidazo[1,2-a]pyridine-3-carboxamido)phenyl)-1,2,4-oxadiazol-5-yl)azetidine-1-carboxylate]
200 nM	–	COC(=O)N1CC[C@@H](Cc2nc(-c3ccc(C)c(NC(=O)c4cnc5ccccn45)c3)no2)C1 [F204]
509 nM	–	CC(=O)N1CCO[C@@H](c2nc(-c3ccc(C)c(NC(=O)c4cnc5ccccn45)c3)no2)C1 [F199]
175 nM	–	Cc1ccc(-c2noc(CC3CCN(S(C)(=O)=O)CC3)n2)cc1NC(=O)c1cnc2ccccn12 [F215]
